Format in all cases: cell-based
For data set [1], the target named is T1, acid ceramidase (AC) (Homo sapiens, UniProt Q13510).
T1 sequence (Q13510 143-395 limits assumed): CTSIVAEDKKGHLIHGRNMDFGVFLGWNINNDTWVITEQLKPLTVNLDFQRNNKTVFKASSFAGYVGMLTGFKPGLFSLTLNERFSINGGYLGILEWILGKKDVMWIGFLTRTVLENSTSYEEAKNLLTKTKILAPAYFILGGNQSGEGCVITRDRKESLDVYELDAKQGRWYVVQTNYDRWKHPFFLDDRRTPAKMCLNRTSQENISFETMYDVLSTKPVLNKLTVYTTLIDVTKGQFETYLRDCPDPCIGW
T1 sequence (Q13510 22-142 limits assumed): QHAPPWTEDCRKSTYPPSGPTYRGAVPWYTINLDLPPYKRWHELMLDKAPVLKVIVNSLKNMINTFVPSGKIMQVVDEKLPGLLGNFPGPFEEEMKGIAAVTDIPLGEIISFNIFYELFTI
As to the kind of experiment: AC activity-dependence of labelling (fluorescence confocal microscopy). Further details: expressed in transfected cells; host or cells: FD/AC (overexpressing AC). The note with it: A375/+Dox and A375/-Dox, with or without SOCLAC (Fig. 7A). The protocol: Cells were seeded at 1 × 10^5 cells/mL on glass-bottom plates and allowed to adhere for 24 h. For golgi staining, cells were incubated with 40 µL/well of CellLight Golgi-RFP BacMam 2.0 for 24 h. […] After this time, the medium was replaced with fresh medium containing CO-1 (1 µM final concentration), and cells were incubated for 10 min. Then cells were washed 3 times with DMEM for 5 min at 37 °C, 75 nM LysoTracker Red DND-99 or 75 nM Mitotracker in phenol red-free DMEM was added to stain lysosomes or mitochondria, and cells were kept in the incubator for microscope analysis. Staining was viewed with a Zeiss LSM 880 confocal microscope or Leica TCS SP8-Hyvolution. Image analysis was performed using Fiji software.^[7] To measure the Manders's and Pearson's coefficients a threshold including organelles and discarding the background was set. Co-localization coefficients were measured using the JaCoP plugin (S. Bolte et al. J. Microsc. 2006, 224, 213-232) on the different stacks of images (at least n=4) with each stack containing 3-10 cells.

Data set [2] deals with A375 cells. Description: Cell viability (MTT method). The note with it: A375/+Dox, 4 h, whole range of concentrations examined. The protocol: A375 cells were seeded at 2.5 × 10^4 cells/mL in 96-well plates (0.1 ml/well) and grown for 24 h. Overexpression of AC was induced with doxycycline at 1 µg/mL for 24 h. Cell viability was examined in triplicate samples by MTT method after treatment with DM120 at different concentrations or with the corresponding percentage of vehicle for 4 h.

Data set [3] deals with T1, acid ceramidase (AC). Description: Fluorogenic AC activity in intact cells (substrate RBM14C12). Further details: expressed in transfected cells; host or cells: A375/+Dox (overexpressing AC). The following applies: AC overexpressing A375 cells (A375/+Dox), 4 h, substrate RBM14C12 40 µM. The protocol: To determine AC activity in intact cells, A375 cells were seeded at 2.5 × 10^4 cells/mL in 96-well plates (0.1 ml/well) and grown for 24 h. Overexpression of AC was induced with doxycycline at 1 µg/mL for 24 h. Medium was replaced by DM120 at different concentrations and substrate RBM14C12 at a final concentration of 40 µM in DMEM. The plate was incubated for 4 h at 37°C in 5% CO2. The reaction was stopped with 25 µL of MeOH and then 100 µL of NalO4 (2.5 mg/mL in glycine-NaOH buffer, pH 10.6) was added. After incubation at 37°C for 1 h, 100 µL of 0.1 M glycine-NaOH buffer (pH 10.6) was added and fluorescence was measured spectrophotometrically at excitation and emission wavelengths of 355 and 460 nm, respectively. The same reaction mixture without cells was used as blank.

Data set [4] addresses T1, acid ceramidase (AC). Description: AC activity by flow cytometry with RBM5-177/CO-1 in intact cells. More on the design: expressed in transfected cells; host or cells: A375/+Dox and FD/AC (overexpressing AC); A375/-Dox and A549 (endogenous AC). The following applies: A375/+Dox, 4 h, RBM5-177 as substrate, labelling with CO-1 (1 µM, 10 min). The protocol:
Cells were seeded at 1 × 10^5 cells/mL into 6 well plates (1 mL/well) and were allowed to adhere for 24 h. Medium was replaced with fresh medium containing Soclac (5 µM final concentration) and incubated for 1 h. After this time, the medium was replaced with RBM5-177, RBM5-019 or RBM2-37 (5 µM final concentration) +/- Soclac and incubated for 20 min. In the experiments with DM120, the compound, Soclac and RBM5-177 were incubated together for 4 h. After probes incubation, the medium was replaced with fresh medium containing CO-1 (1 µM final concentration), and cells were incubated for 10 min. Then cells were washed 3 times with DMEM for 5 min at 37 °C, and finally washed with 400 µL PBS and harvested with 400 µL Trypsin-EDTA and 600 µL of medium. Pellets were resuspended with 200 µL of PBS and stained cells were analyzed by using a Guava EasyCyte™ flow cytometer (Merck Millipore, Billerica, MA) measuring green fluorescence (488/525 nm). Data analysis was performed using the Multicycle AV program (Phoenix Flow Systems, San Diego, CA).

Data set [5] has as its target T1, acid ceramidase (AC). Description: AC activity in intact cells by UPLC-HRMS quantification of RBM5-019 and reacylated products. Further details: expressed in transfected cells; host or cells: A375/+Dox (overexpressing AC). The note with it: A375/+Dox, 4 h, decrease in RBM5-19 amounts by UPLC-HRMS. The protocol:
Cells were seeded at 5 × 10^5 cells/mL into 6 well plates (1 mL/well) and were allowed to adhere for 24 h. Medium was replaced with fresh medium containing RBM5-177, RBM5-019 or RBM2-37 (5 μM final concentration). After 30 min, medium was removed; cells were washed with 400 μL PBS and harvested with 400 μL Trypsin-EDTA and 600 μL of medium. NC recombinant enzyme, lysates from A375-AC overexpressing cells, MEF5 or microsomes from HeLa T-Rex ACER1-TET-ON and HeLa T-Rex ACER2-TET-ON cells stably overexpress ACER1 orACER2 respectively were incubated with RBM5-177 or RBM5-019 (10 μM final concentration) for 3 h in the corresponding ceramidase activity buffer. Cell pellets were resuspended with 100 μL of H2O and mixed with 750 μL of methanol: chloroform, 2:1. Samples were heated at 48°C overnight and next day, 75 μL of 1 M KOH in methanol were added, followed by 2 h incubation at 37°C. Afterwards, the saponification was neutralised with 75 μL of 1 M acetic acid and solvent was removed using a […] (Thermo Scientific). Sphingolipid extracts, fortified with internal standards (N-dodecanoylsphingosine, N-dodecanoylglucosylsphingosine, N-dodecanoylsphingosylphosphorylcoline and C17-sphinganine 0.2 nmol each) were solubilised in 150 μL of methanol. Samples were then centrifuged at 9,300 g for 3 min and 130 μL of the supernatant were injected to a Waters Aquity UPLC system connected to a Waters LCT Premier Orthogonal Accelerated Time of Flight Mass Spectrometer (Waters,Milford, MA, USA) operated in positive electrospray ionisation mode. Full scan spectra from 50 to 1500 Da were acquired and individual spectra were summed to produce data points each 0.2 s. Mass accuracy and reproducibility were maintained by using an independent reference spray by the LockSpray interference. The analytical column was a 100 mm x2.1 mm i.d., 1.7 μm C8 Acquity UPLC BEH (Waters). The two mobile phases were phase A: methanol/water/formic acid (74/25/1 v/v/v); phase B: methanol/formic acid (99/1 v/v), both also contained 5 mM ammonium formate. […]

The subject of data set [6] is CerS. As to the kind of experiment: CerS activity-dependence of labelling with RBM5-177 (confocal microscopy and UPLC-HRMS). The following applies: A375/+Dox cells, FB1 100 µM, 24 h. The protocol:
Cells were seeded at 5 × 10^5 cells/mL into 6 well plates (1 mL/well) and were allowed to adhere for 24 h. Medium was replaced with fresh medium containing RBM5-177, RBM5-019 or RBM2-37 (5 µM final concentration). After 30 min, medium was removed; cells were washed with 400 µL PBS and harvested with 400 µL Trypsin-EDTA and 600 µL of medium. NC recombinant enzyme, lysates from A375-AC overexpressing cells, MEF5 or microsomes from HeLa T-Rex ACER1-TET-ON and HeLa T-Rex ACER2-TET-ON cells stably overexpress ACER1 orACER2 respectively were incubated with RBM5-177 or RBM5-019 (10 µM final concentration) for 3 h in the corresponding ceramidase activity buffer. Cell pellets were resuspended with 100 µL of H2O and mixed with 750 µL of methanol: chloroform, 2:1. Samples were heated at 48°C overnight and next day, 75 µL of 1 M KOH in methanol were added, followed by 2 h incubation at 37°C. Afterwards, the saponification was neutralised with 75 µL of 1 M acetic acid and solvent was removed using a Speed Vac Savant SPD131 DDA (Thermo Scientific). […]
Cells were seeded at 1 × 10^5 cells/mL on glass-bottom plates and allowed to adhere for 24 h. […] Co-localization coefficients were measured using the JaCoP plugin (S. Bolte et al. J. Microsc. 2006, 224, 213-232) on the different stacks of images (at least n=4) with each stack containing 3-10 cells.

In the case of `C[C@H](N)[C@H](O)CCCCCCCCCCCCN=[N+]=[N-]` [RBM5-019, (2S,3R)-2-Amino-15-azidopentadecan-3-ol], the “sensitivity of lysosome labelling to AC activity” value in data set [1] is given as “not sensitive to AC overexpression or blockade”.

For `CCCCCCCCCCCCC/C=C/[C@H](CO)NC(=O)C(C)(C)C` [DM120], the toxicity entry in data set [2] is given as “without toxicity in the whole range of concentrations examined”. The IC50 in data set [3] turned out to be 9.4 µM; in data set [4], 27 µM; in data set [5], 18 µM.

Take `CCCC[C@@H](C)[C@@H](OC(=O)C[C@@H](CC(=O)O)C(=O)O)[C@H](C[C@@H](C)C[C@H](O)CCCC[C@@H](O)C[C@H](O)[C@H](C)N)OC(=O)C[C@@H](CC(=O)O)C(=O)O` [FB1, Fumonisin B1]: the “effect on transacylation (N-acylderivatives)” value in data set [6] (UPLC-HRMS (Fig. 4B)) was “transacylation was blocked”. Moreover, in data set [6] (confocal microscopy (Fig. 4A)), the “effect on extralysosomal staining” value is recorded as “prevented”.

(Values after EP3925949A1, “AZIDO COMPOUNDS AND METHOD FOR MONITORING ACID CERAMIDASE ACTIVITY IN INTACT CELLS USING THEM” (Consejo Superior de Investigaciones Científicas (CSIC), priority 2020, dated 2021).)
